Results: ChEMBL document CHEMBL4433232, “Tool inhibitors and assays to interrogate the biology of the TRAF2 and NCK interacting kinase” (Bioorg Med Chem Lett, 2019)
Calls of active or inactive are those of the source. No cut-off for these calls is given here.

How the values were obtained:
[1] = molecular target: T1, TRAF2 and NCK-interacting protein kinase (Homo sapiens, UniProt Q9UKE5); experiment: Inhibition of human 6His-TEV-TNIK(1 to 325) expressed in baculovirus-infected sf21 cells using LRRKtide as substrate preincubated for 30 mins followed by substrate addition and measured after 75 to 90 mins by ADP-Glo Reagent based method
Target sequence in this assay (Q9UKE5 whole entry): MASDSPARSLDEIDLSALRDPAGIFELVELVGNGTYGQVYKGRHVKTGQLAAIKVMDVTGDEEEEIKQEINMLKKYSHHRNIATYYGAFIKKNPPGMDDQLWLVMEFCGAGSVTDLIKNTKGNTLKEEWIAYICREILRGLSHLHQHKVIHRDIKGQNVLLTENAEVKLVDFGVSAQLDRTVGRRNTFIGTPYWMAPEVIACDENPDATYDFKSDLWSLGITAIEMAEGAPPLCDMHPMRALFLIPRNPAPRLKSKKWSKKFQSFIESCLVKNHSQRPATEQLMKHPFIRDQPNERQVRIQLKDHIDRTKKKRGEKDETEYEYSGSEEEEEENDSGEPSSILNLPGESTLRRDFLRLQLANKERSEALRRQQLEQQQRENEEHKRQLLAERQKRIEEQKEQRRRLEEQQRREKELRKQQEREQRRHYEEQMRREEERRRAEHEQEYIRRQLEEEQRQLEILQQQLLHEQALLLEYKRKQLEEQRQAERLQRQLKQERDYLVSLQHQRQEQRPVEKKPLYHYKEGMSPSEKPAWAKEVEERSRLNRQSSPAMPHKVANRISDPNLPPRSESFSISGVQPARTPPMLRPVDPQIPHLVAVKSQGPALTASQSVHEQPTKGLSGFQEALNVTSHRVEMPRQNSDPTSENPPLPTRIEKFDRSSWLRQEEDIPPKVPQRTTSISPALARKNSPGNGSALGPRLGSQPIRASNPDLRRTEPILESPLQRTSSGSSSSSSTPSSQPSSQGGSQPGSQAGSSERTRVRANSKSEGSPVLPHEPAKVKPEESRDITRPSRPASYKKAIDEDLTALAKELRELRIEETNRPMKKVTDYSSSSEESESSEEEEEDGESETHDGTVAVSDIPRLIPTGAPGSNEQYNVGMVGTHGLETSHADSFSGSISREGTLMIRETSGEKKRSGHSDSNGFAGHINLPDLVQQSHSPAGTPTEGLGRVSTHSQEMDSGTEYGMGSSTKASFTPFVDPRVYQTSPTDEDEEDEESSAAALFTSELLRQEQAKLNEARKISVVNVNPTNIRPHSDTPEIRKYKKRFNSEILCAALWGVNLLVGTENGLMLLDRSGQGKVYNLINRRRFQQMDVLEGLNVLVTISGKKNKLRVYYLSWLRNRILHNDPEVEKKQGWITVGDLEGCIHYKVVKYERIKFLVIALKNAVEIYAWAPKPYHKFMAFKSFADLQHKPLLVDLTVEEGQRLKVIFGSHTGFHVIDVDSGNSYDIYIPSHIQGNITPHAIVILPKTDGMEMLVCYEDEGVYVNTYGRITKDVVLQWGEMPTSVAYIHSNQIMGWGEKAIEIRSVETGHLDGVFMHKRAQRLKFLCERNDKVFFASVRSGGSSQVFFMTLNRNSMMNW

Misshapen-like kinase 1 [2] = molecular target: T2, Misshapen-like kinase 1 (Homo sapiens, UniProt Q8N4C8); experiment: Inhibition of human 6His-TEV-Avi-MINK1(1 to 328)-GNS expressed in baculovirus-infected sf21 cells using LRRKtide as substrate preincubated for 30 mins followed by substrate addition and measured after 75 to 90 mins by ADP-Glo Reagent based method
[3] = molecular target: T3, Mitogen-activated protein kinase kinase kinase kinase 4 (Homo sapiens, UniProt O95819); experiment: Inhibition of human 6His-TEV-SHM-MAP4K4(2 to 328)-GNS expressed in baculovirus-infected sf21 cells using LRRKtide as substrate preincubated for 30 mins followed by substrate addition and measured after 75 to 90 mins by ADP-Glo Reagent based method
Target sequence in this assay (O95819 whole entry): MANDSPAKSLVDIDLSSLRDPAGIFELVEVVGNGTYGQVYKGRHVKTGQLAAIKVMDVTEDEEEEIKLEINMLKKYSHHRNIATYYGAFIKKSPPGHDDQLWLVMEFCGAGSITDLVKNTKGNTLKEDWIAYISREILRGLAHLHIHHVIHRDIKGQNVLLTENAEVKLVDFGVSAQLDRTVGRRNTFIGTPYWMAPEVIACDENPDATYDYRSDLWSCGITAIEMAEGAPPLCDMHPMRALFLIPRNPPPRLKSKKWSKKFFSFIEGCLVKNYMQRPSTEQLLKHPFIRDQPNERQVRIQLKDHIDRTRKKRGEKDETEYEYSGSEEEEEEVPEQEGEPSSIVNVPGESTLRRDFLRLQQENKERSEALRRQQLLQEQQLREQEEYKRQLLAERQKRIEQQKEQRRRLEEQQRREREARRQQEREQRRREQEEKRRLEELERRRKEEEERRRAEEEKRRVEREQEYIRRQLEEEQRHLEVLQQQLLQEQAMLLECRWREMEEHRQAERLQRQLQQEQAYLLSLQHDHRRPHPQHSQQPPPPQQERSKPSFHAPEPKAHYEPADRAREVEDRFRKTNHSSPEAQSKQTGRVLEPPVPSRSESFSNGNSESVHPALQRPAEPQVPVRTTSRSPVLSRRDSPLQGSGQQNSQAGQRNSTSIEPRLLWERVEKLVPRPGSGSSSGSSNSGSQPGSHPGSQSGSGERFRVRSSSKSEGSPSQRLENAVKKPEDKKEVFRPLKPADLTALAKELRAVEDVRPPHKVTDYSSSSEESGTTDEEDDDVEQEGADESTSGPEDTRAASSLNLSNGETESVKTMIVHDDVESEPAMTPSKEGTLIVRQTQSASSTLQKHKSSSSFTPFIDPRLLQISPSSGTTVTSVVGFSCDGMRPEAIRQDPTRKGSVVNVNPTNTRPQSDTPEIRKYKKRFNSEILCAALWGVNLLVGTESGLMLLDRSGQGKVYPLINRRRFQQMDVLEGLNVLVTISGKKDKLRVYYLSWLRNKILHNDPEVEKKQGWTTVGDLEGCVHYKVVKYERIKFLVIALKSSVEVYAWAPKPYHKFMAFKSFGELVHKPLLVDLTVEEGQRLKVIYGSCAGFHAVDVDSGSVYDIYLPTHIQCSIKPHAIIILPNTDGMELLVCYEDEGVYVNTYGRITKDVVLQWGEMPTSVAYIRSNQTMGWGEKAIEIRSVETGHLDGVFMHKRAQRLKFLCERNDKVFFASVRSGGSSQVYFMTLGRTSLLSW

[4] = molecular target: T1, TRAF2 and NCK-interacting protein kinase; experiment: Inhibition of human full length TNIK in HEK293 cells co-transfected with full length SMAD1 incubated for 2 hrs by ELISA; assay type: cell-based
Target sequence in this assay (Q9UKE5 whole entry): as the sequence (Q9UKE5 whole entry) above

[5] = molecular target: T1, TRAF2 and NCK-interacting protein kinase; experiment: Inhibition of human full length TNIK(1-1360)-G5-Avi-6His-Flag expressed in baculovirus-infected sf21 cells using His6-SMAD1 as substrate preincubated for 30 mins followed by substrate addition and measured after 120 mins by ADP-Glo Reagent based method
Target sequence in this assay (Q9UKE5 whole entry): as above

Misshapen-like kinase 1 [6] = molecular target: T2, Misshapen-like kinase 1; experiment: Inhibition of human full length MINK1(1-1332)-G5-Avi-6His-Flag expressed in baculovirus-infected sf21 cells using His6-SMAD1 as substrate preincubated for 30 mins followed by substrate addition and measured after 120 mins by ADP-Glo Reagent based method
[7] = molecular target: T1, TRAF2 and NCK-interacting protein kinase; experiment: Inhibition of human TNIK in human iPSC derived neuronal progenitor cells assessed as reduction in motif phosphorylation at 10 uM after 6 hrs with presence of okadaic acid by Western blot analysis
Target sequence in this assay (Q9UKE5 whole entry, looked up): as the sequence (Q9UKE5 whole entry) above

[8] = molecular target: T3, Mitogen-activated protein kinase kinase kinase kinase 4; experiment: Inhibition of human full length MAP4K4(1-1239)-G5-Avi-6His-Flag expressed in baculovirus-infected sf21 cells using His6-SMAD1 as substrate preincubated for 30 mins followed by substrate addition and measured after 120 mins by ADP-Glo Reagent based method
Target sequence in this assay (O95819 whole entry): as the sequence (O95819 whole entry) above

[9] = molecular target: T1, TRAF2 and NCK-interacting protein kinase; experiment: Inhibition of human full length TNIK in HEK293 cells co-transfected with full length SMAD1 up to 30 uM incubated for 2 hrs by ELISA; assay type: cell-based
Target sequence in this assay (Q9UKE5 whole entry, looked up): as the sequence (Q9UKE5 whole entry) above

[10] = molecular target: Leucine-rich repeat serine/threonine-protein kinase 2 (Homo sapiens) (UniProt Q5S007); experiment: Inhibition of full length LRRK2 (unknown origin) at 0.1 uM relative to control
[11] = molecular target: AP2-associated protein kinase 1 (Homo sapiens) (UniProt Q2M2I8); experiment: Inhibition of AAK1 (unknown origin) at 0.1 uM relative to control
[12] = molecular target: Dual specificity protein kinase CLK4 (Homo sapiens) (UniProt Q9HAZ1); experiment: Inhibition of CLK4 (unknown origin) at 0.1 uM relative to control
[13] = molecular target: T4, Myosin light chain kinase family member 4 (Homo sapiens) (UniProt Q86YV6); experiment: Inhibition of MYLK4 (unknown origin) at 0.1 uM relative to control
T4 sequence (whole entry): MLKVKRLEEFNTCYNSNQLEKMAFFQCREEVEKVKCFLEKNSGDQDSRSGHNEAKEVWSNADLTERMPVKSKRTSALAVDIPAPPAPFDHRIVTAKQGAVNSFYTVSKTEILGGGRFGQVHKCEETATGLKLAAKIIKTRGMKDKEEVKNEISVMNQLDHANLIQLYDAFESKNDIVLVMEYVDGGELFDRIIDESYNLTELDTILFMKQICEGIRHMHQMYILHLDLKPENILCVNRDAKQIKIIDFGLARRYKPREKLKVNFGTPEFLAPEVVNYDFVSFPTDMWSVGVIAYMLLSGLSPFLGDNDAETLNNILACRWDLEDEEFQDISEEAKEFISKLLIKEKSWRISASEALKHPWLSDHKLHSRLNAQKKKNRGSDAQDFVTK

[14] = molecular target: T5, Interleukin-1 receptor-associated kinase 3 (Homo sapiens) (UniProt Q9Y616); experiment: Inhibition of IRAK3 (unknown origin) at 0.1 uM relative to control
T5 sequence (whole entry): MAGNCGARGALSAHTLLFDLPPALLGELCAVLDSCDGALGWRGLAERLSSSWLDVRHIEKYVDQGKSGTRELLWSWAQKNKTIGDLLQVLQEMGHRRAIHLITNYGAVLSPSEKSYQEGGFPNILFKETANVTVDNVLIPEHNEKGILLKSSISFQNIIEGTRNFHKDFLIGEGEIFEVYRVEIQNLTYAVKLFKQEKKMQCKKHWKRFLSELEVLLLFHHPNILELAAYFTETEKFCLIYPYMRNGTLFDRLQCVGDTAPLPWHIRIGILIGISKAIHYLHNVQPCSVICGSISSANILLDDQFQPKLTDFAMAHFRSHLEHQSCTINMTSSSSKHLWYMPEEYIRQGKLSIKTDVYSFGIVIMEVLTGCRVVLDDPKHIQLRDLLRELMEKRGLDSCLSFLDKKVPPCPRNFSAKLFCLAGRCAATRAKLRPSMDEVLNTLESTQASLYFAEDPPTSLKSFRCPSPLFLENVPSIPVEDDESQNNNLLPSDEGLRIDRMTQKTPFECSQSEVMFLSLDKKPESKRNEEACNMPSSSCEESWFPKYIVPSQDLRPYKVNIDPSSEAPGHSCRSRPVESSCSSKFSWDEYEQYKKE

[15] = molecular target: Leucine-rich repeat serine/threonine-protein kinase 2 (Homo sapiens) (UniProt Q5S007); experiment: Inhibition of LRRK2 (unknown origin) at 0.1 uM relative to control
Saccharomyces cerevisiae = experiment: Inhibition of Saccharomyces cerevisiae CDC7/DBF4 at 0.1 uM relative to control
[16] = molecular target: T3, Mitogen-activated protein kinase kinase kinase kinase 4; experiment: Inhibition of MAP4K4 (unknown origin) at 0.1 uM relative to control

T2 sequence (Q8N4C8 whole entry): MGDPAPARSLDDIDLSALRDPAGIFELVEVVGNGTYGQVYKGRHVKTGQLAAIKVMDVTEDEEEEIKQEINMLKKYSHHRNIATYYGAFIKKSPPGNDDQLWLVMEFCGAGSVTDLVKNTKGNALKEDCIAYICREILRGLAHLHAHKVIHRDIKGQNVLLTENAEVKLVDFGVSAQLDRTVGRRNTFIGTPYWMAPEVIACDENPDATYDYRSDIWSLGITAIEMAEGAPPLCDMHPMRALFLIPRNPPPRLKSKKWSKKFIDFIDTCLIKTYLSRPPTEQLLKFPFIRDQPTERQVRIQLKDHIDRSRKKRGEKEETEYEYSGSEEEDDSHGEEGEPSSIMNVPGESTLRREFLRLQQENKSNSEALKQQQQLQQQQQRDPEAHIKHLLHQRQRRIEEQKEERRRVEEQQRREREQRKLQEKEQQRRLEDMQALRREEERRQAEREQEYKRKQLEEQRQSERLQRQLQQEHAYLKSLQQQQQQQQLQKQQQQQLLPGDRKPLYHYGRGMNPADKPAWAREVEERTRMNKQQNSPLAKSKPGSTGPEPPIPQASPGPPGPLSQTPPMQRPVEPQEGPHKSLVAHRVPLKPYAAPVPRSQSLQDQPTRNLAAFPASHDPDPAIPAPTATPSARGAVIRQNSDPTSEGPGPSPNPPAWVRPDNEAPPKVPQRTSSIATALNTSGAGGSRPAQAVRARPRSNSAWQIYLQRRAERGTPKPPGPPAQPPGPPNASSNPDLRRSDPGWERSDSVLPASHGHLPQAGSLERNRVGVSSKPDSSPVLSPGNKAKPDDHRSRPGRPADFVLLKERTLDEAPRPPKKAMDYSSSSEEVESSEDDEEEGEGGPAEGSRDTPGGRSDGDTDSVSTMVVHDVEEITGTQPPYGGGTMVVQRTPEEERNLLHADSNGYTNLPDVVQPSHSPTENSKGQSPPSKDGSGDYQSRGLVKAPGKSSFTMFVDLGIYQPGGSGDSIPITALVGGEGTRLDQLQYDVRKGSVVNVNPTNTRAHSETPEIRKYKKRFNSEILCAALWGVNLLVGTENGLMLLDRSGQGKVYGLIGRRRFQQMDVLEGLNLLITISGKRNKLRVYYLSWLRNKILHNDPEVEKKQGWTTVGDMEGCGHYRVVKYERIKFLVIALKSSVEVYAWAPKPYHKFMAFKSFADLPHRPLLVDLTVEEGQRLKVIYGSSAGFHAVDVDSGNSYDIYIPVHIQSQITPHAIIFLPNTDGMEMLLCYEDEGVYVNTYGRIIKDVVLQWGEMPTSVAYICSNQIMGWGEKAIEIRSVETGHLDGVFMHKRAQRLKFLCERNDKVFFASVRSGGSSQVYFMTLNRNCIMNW
Sequence of AP2-associated protein kinase 1 (Homo sapiens) (Q2M2I8 whole entry, looked up): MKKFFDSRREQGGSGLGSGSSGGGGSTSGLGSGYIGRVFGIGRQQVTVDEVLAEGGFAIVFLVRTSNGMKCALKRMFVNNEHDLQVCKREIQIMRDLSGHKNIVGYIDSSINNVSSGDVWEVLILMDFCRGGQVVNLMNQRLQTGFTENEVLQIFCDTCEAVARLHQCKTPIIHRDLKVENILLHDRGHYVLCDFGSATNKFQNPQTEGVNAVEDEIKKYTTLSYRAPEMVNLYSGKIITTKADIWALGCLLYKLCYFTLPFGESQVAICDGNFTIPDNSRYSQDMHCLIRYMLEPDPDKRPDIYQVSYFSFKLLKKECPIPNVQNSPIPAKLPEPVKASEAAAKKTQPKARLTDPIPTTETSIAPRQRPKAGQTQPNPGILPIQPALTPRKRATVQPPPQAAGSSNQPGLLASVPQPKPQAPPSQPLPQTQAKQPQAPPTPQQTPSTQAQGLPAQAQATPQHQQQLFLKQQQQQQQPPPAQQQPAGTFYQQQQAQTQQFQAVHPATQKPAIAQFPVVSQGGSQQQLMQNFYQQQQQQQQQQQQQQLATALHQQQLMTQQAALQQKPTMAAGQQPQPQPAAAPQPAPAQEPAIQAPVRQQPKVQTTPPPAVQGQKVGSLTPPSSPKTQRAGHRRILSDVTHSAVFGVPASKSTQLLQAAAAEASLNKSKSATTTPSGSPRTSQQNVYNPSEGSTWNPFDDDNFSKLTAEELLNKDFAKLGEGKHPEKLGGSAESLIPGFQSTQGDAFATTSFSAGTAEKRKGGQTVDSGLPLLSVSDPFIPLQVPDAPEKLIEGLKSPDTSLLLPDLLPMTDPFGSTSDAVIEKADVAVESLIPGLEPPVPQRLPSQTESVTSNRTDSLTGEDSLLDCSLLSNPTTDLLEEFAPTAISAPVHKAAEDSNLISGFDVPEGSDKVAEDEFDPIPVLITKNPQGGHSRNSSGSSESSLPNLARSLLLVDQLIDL

IC50 ([1]; read-out: pIC50 (converted)) [nM]	IC50 (Misshapen-like kinase 1 [2]; read-out: pIC50 (converted)) [nM]	IC50 ([3]; read-out: pIC50 (converted)) [nM]	IC50 ([4]; read-out: IC50) [nM]	IC50 ([4]; read-out: pIC50 (converted)) [nM]	IC50 [5] [nM]	IC50 (Misshapen-like kinase 1 [6]) [nM]	inhibition [7]	IC50 [8] [µM]	inhibition [9]	SMILES	other results
126	200	158	–	–	–	–	–	–	–	CC(C)(O)c1cnc(N)c2nc(-c3ccnc(F)c3)ccc12	–
79.4	126	12.6	930	1260	39.8	39.8	Active	0.0251	–	CC(C)NC(=O)c1ccc(-c2cnc(N)c(-c3ccc(C#N)cc3)c2)cc1	–
25100	25100	20000	–	> 31600	25100	63100	inactive	50.1	inactive	CC(C)NC(=O)c1ccc(-c2cnc(N(C)C)c(-c3ccc(C#N)cc3)c2)cc1	–
3980	20000	15800	–	> 31600	3980	6310	inactive	7.94	inactive	CN(C)c1ncc(-c2ccc(O)cc2)cc1-c1ccc(S(C)(=O)=O)cc1	–
15800	25100	20000	–	> 31600	5010	3980	inactive	3.98	inactive	Fc1cc(-c2ccc3ccncc3n2)ccn1	–
158	200	158	–	–	–	–	–	–	–	Nc1ncnc2ccc(-c3ccnc(F)c3)nc12	IC50 ([1]; read-out: IC50): 150 to 200 nM; IC50 (Misshapen-like kinase 1 [2]; read-out: IC50): 150 to 200 nM; IC50 ([3]; read-out: IC50): 150 to 200 nM
12.6	50.1	31.6	1130	–	7.94	12.6	Active	0.02	–	Nc1ncc(Br)c2ccc(-c3ccnc(F)c3)nc12	inhibition [10]: 61%; inhibition [11]: 95%; inhibition [12]: 51%; inhibition [13]: 73%; inhibition [14]: 90%; inhibition [15]: 54%; inhibition (Saccharomyces cerevisiae): 56%; inhibition [16]: 99%
10	39.8	–	470	–	10	15.8	Active	–	–	CS(=O)(=O)c1ccc(-c2cc(-c3ccc(O)cc3)cnc2N)cc1	–
